Laboratory results from US20090215775A1, “Sulphonamido-Substituted Cyclohexyl Sulphones for Treatment of Cancer” (priority 2005, published 2009).

Test system: Cells expressing Notch (ALL-SIL, DND-41, HPB-ALL or TALL-1)
Assay: Assay for Cell Cycle Arrest (propidium iodide, FACS)
Type: cell-based
Details: concentrations up to 10 μM; incubation typically 4-8 days; in comparison to untreated controls
Procedure: Cells expressing Notch (ALL-SIL, DND-41, HPB-ALL or TALL-1) (Weng et al, Science, 306 (2004), 269-71) are incubated in the presence or absence of a compound of the instant invention (e.g. the compound of Example 47 below) at concentrations up to 10 μM. At the end of the incubation (typically 4-8 days), the cells are collected, fixed in 70% ethanol on ice for >2 hours, washed, then labelled for 15 min at 37° C. with propidium iodide (0.2 mg/ml) (PI) in the presence of 0.1% Triton X100 and 0.2 mg/ml RNase and subjected to FACS analysis.

O=S(=O)(N[C@H]1CC[C@@](c2cc(F)ccc2F)(S(=O)(=O)c2ccc(Cl)cc2)CC1)C(F)(F)F [Example 47, trifluoromethanesulfonic acid, N-[4-(4-chlorobenzenesulfonyl)-4-(2,5-difluorophenyl)-cyclohexyl]-amide]
G2- and S-phase populations (FACS analysis): severe loss of G2- and S-phase populations
